Tested on: 777334-354-R2-J4-PDC tumor spheroids with HUVEC/MSC, viability
Assay: Anticancer human tumor 777334-354-R2-J4-PDC patient-derived pancreatic adenocarcinoma cell line growth inhibition [GQUAD]
Details: for IC50: curve of first compound; for viability, T/C: stronger effect = lower value
Outline: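 Viability of tumor cells grown as complex spheroids with endothelial and stromal cells, exposed to drug combinations. Top concentration at or near clinical Cmax (else 10 microM), diluted in half-log increments.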

[1] = second compound 0.0316 µM, first compound 0.0316 µM
[2] = second compound 0.0316 µM, first compound 0.1 µM
[3] = second compound 0.0316 µM, first compound 0.316 µM
[4] = second compound 0.0316 µM, first compound 1 µM
[5] = second compound 0.0316 µM, first compound 3.16 µM
[6] = second compound 0.0316 µM, first compound 10 µM
[7] = second compound 0.1 µM, first compound 0.0316 µM
[8] = second compound 0.1 µM, first compound 0.1 µM
[9] = second compound 0.1 µM, first compound 0.316 µM
[10] = second compound 0.1 µM, first compound 1 µM
[11] = second compound 0.1 µM, first compound 3.16 µM
[12] = second compound 0.1 µM, first compound 10 µM
[13] = second compound 0.316 µM, first compound 0.0316 µM
[14] = second compound 0.316 µM, first compound 0.1 µM
[15] = second compound 0.316 µM, first compound 0.316 µM
[16] = second compound 0.316 µM, first compound 1 µM
[17] = second compound 0.316 µM, first compound 3.16 µM
[18] = second compound 0.316 µM, first compound 10 µM
[19] = second compound 1 µM, first compound 0.0316 µM
[20] = second compound 1 µM, first compound 0.1 µM
[21] = second compound 1 µM, first compound 0.316 µM
[22] = second compound 1 µM, first compound 1 µM
[23] = second compound 1 µM, first compound 3.16 µM
[24] = second compound 1 µM, first compound 10 µM
[25] = second compound 3.16 µM, first compound 0.0316 µM
[26] = second compound 3.16 µM, first compound 0.1 µM
[27] = second compound 3.16 µM, first compound 0.316 µM
[28] = second compound 3.16 µM, first compound 1 µM
[29] = second compound 3.16 µM, first compound 3.16 µM
[30] = second compound 3.16 µM, first compound 10 µM
[31] = second compound 10 µM, first compound 0.0316 µM
[32] = second compound 10 µM, first compound 0.1 µM
[33] = second compound 10 µM, first compound 0.316 µM
[34] = second compound 10 µM, first compound 1 µM
[35] = second compound 10 µM, first compound 3.16 µM
[36] = second compound 10 µM, first compound 10 µM
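Further: spheroids exposed to compounds for 7 days before readout.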

CC(C)n1c(=O)n(C)c2cnc3cc(F)c(-c4ccc(OCCCN5CCCCC5)nc4)cc3c21 + Cc1cnc(CNC(=O)c2c(=O)c3ccc(N4CCCN(C)CC4)nc3n3c2sc2ccccc23)cn1
IC50 (second compound 0.0316 µM): > 10000 nM
IC50 (second compound 0.1 µM): > 10000 nM
IC50 (second compound 0.316 µM): > 10000 nM
IC50 (second compound 1 µM): > 10000 nM
IC50 (second compound 3.16 µM): > 10000 nM
IC50 (second compound 10 µM): > 10000 nM
viability, T/C [1]: 85.8%
viability, T/C [2]: 84%
viability, T/C [3]: 93.9%
viability, T/C [4]: 91%
viability, T/C [5]: 103%
viability, T/C [6]: 85.6%
viability, T/C [7]: 78.3%
viability, T/C [8]: 74.3%
viability, T/C [9]: 89.1%
viability, T/C [10]: 73.6%
viability, T/C [11]: 74.2%
viability, T/C [12]: 91.4%
viability, T/C [13]: 71.4%
viability, T/C [14]: 73.2%
viability, T/C [15]: 73.8%
viability, T/C [16]: 84.7%
viability, T/C [17]: 76%
viability, T/C [18]: 74.8%
viability, T/C [19]: 73.3%
viability, T/C [20]: 71.6%
viability, T/C [21]: 66.9%
viability, T/C [22]: 72.7%
viability, T/C [23]: 85.7%
viability, T/C [24]: 73.7%
viability, T/C [25]: 57.6%
viability, T/C [26]: 62.8%
viability, T/C [27]: 66.5%
viability, T/C [28]: 62.1%
viability, T/C [29]: 78.6%
viability, T/C [30]: 63.4%
viability, T/C [31]: 57.4%
viability, T/C [32]: 52.9%
viability, T/C [33]: 61.6%
viability, T/C [34]: 62%
viability, T/C [35]: 69%
viability, T/C [36]: 64.1%

CC1COCCN1c1cc(-c2ccnn2C)c2ccnc(-c3ccn[nH]3)c2n1 (stereo not given) + Cc1cnc(CNC(=O)c2c(=O)c3ccc(N4CCCN(C)CC4)nc3n3c2sc2ccccc23)cn1
IC50 (second compound 0.0316 µM): 143 nM
IC50 (second compound 0.1 µM): 240 nM
IC50 (second compound 0.316 µM): 331 nM
IC50 (second compound 1 µM): < 31.6 nM
IC50 (second compound 3.16 µM): < 31.6 nM
IC50 (second compound 10 µM): < 31.6 nM
viability, T/C [1]: 73.2%
viability, T/C [2]: 50.8%
viability, T/C [3]: 45.5%
viability, T/C [4]: 41.7%
viability, T/C [5]: 43.1%
viability, T/C [6]: 34.5%
viability, T/C [7]: 59.8%
viability, T/C [8]: 51.3%
viability, T/C [9]: 47.8%
viability, T/C [10]: 41.9%
viability, T/C [11]: 44.1%
viability, T/C [12]: 28.7%
viability, T/C [13]: 56%
viability, T/C [14]: 59.3%
viability, T/C [15]: 48.6%
viability, T/C [16]: 41.8%
viability, T/C [17]: 38.6%
viability, T/C [18]: 26.9%
viability, T/C [19]: 48.3%
viability, T/C [20]: 44.1%
viability, T/C [21]: 52.8%
viability, T/C [22]: 41.8%
viability, T/C [23]: 36.2%
viability, T/C [24]: 27.5%
viability, T/C [25]: 44.5%
viability, T/C [26]: 41%
viability, T/C [27]: 41.7%
viability, T/C [28]: 41.3%
viability, T/C [29]: 29.6%
viability, T/C [30]: 20%
viability, T/C [31]: 42.8%
viability, T/C [32]: 39.8%
viability, T/C [33]: 44.7%
viability, T/C [34]: 36.9%
viability, T/C [35]: 32.5%
viability, T/C [36]: 21.2%

CC1COCCN1c1cc(C2(O)CC3CCC(C2)O3)c2cnn(-c3ccn[nH]3)c2n1 (stereo not given) + Cc1cnc(CNC(=O)c2c(=O)c3ccc(N4CCCN(C)CC4)nc3n3c2sc2ccccc23)cn1
IC50 (second compound 0.0316 µM): 128 nM
IC50 (second compound 0.1 µM): 144 nM
IC50 (second compound 0.316 µM): 158 nM
IC50 (second compound 1 µM): 130 nM
IC50 (second compound 3.16 µM): < 31.6 nM
IC50 (second compound 10 µM): < 31.6 nM
viability, T/C [1]: 62%
viability, T/C [2]: 46.6%
viability, T/C [3]: 45.6%
viability, T/C [4]: 37.3%
viability, T/C [5]: 32.6%
viability, T/C [6]: 21.5%
viability, T/C [7]: 65.9%
viability, T/C [8]: 46.5%
viability, T/C [9]: 46.4%
viability, T/C [10]: 34.8%
viability, T/C [11]: 31.9%
viability, T/C [12]: 18.4%
viability, T/C [13]: 54.1%
viability, T/C [14]: 55%
viability, T/C [15]: 46%
viability, T/C [16]: 37.1%
viability, T/C [17]: 30.6%
viability, T/C [18]: 16.5%
viability, T/C [19]: 59.7%
viability, T/C [20]: 46.1%
viability, T/C [21]: 45.6%
viability, T/C [22]: 39.7%
viability, T/C [23]: 26.4%
viability, T/C [24]: 15%
viability, T/C [25]: 40.8%
viability, T/C [26]: 46.1%
viability, T/C [27]: 46.3%
viability, T/C [28]: 34.2%
viability, T/C [29]: 21.4%
viability, T/C [30]: 14.9%
viability, T/C [31]: 46.8%
viability, T/C [32]: 42.8%
viability, T/C [33]: 39%
viability, T/C [34]: 29.6%
viability, T/C [35]: 18.7%
viability, T/C [36]: 11.2%

Cc1cccc(N(C)C(=O)C2C(O)CCN2c2nc(C)cc(C(F)(F)F)c2C#N)c1 (stereo not given) + Cc1cnc(CNC(=O)c2c(=O)c3ccc(N4CCCN(C)CC4)nc3n3c2sc2ccccc23)cn1
IC50 (second compound 0.0316 µM): > 10000 nM
IC50 (second compound 0.1 µM): > 10000 nM
IC50 (second compound 0.316 µM): > 10000 nM
IC50 (second compound 1 µM): > 10000 nM
IC50 (second compound 3.16 µM): > 10000 nM
IC50 (second compound 10 µM): > 10000 nM
viability, T/C [1]: 103%
viability, T/C [2]: 91.3%
viability, T/C [3]: 107%
viability, T/C [4]: 94.5%
viability, T/C [5]: 105%
viability, T/C [6]: 100%
viability, T/C [7]: 108%
viability, T/C [8]: 92.2%
viability, T/C [9]: 93.6%
viability, T/C [10]: 83.5%
viability, T/C [11]: 95%
viability, T/C [12]: 85%
viability, T/C [13]: 82.6%
viability, T/C [14]: 84.9%
viability, T/C [15]: 78.1%
viability, T/C [16]: 84.8%
viability, T/C [17]: 80.7%
viability, T/C [18]: 91.7%
viability, T/C [19]: 65.3%
viability, T/C [20]: 73%
viability, T/C [21]: 79.5%
viability, T/C [22]: 75.8%
viability, T/C [23]: 71.2%
viability, T/C [24]: 65.5%
viability, T/C [25]: 59.3%
viability, T/C [26]: 67%
viability, T/C [27]: 58.4%
viability, T/C [28]: 62.3%
viability, T/C [29]: 67.2%
viability, T/C [30]: 60.6%
viability, T/C [31]: 63%
viability, T/C [32]: 63.2%
viability, T/C [33]: 59.6%
viability, T/C [34]: 64.5%
viability, T/C [35]: 64.5%
viability, T/C [36]: 62.7%

O=C(c1cc(Cc2n[nH]c(=O)c3ccccc23)ccc1F)N1CCN(C(=O)C2CC2)CC1 + Cc1cnc(CNC(=O)c2c(=O)c3ccc(N4CCCN(C)CC4)nc3n3c2sc2ccccc23)cn1
IC50 (second compound 0.0316 µM): > 10000 nM
IC50 (second compound 0.1 µM): > 10000 nM
IC50 (second compound 0.316 µM): > 10000 nM
IC50 (second compound 1 µM): > 10000 nM
IC50 (second compound 3.16 µM): > 10000 nM
IC50 (second compound 10 µM): > 10000 nM
viability, T/C [1]: 85.9%
viability, T/C [2]: 94.2%
viability, T/C [3]: 96.6%
viability, T/C [4]: 92%
viability, T/C [5]: 90.6%
viability, T/C [6]: 75.7%
viability, T/C [7]: 88.9%
viability, T/C [8]: 88.2%
viability, T/C [9]: 91.8%
viability, T/C [10]: 88%
viability, T/C [11]: 76.7%
viability, T/C [12]: 70.3%
viability, T/C [13]: 79.9%
viability, T/C [14]: 76.5%
viability, T/C [15]: 69.7%
viability, T/C [16]: 75.1%
viability, T/C [17]: 74.3%
viability, T/C [18]: 64.9%
viability, T/C [19]: 73.8%
viability, T/C [20]: 75.6%
viability, T/C [21]: 76.2%
viability, T/C [22]: 68.8%
viability, T/C [23]: 69.5%
viability, T/C [24]: 60.4%
viability, T/C [25]: 56.5%
viability, T/C [26]: 55.9%
viability, T/C [27]: 63%
viability, T/C [28]: 64.2%
viability, T/C [29]: 64.9%
viability, T/C [30]: 56.2%
viability, T/C [31]: 61.5%
viability, T/C [32]: 54.2%
viability, T/C [33]: 51.9%
viability, T/C [34]: 55.8%
viability, T/C [35]: 61.9%
viability, T/C [36]: 47.7%

— PubChem BioAssay AID2060499 (Molecular Pharmacology Branch, DTP, NCI, 2025)
